Tests used:
[1] = molecular target: T1, recombinant human HDAC2 (Homo sapiens, UniProt Q92769); assay: Fluorogenic HDAC inhibition assay, HDAC2 (Boc-L-Lys(Ac)-AMC substrate); assay type: biochemical; conditions: for IC50: maximum preincubation time 24 h
T1 construct: purchased BPS Bioscience
Procedure: (§1) 10 μL of the enzyme stock was added to 30 μL of the probes and preincubated for different preincubation times.

[2] = molecular target: recombinant His-tagged HDAC2 (Homo sapiens, UniProt Q92769); assay: Photoaffinity labeling (photocrosslinking) of HDAC2 with TSA competition, biotin tag, streptavidin-HRP western blot; assay type: binding; conditions: probe 25 μM, HDAC2 1.25 μM, Trichostatin A 125 μM (5-fold molar excess), 24 h, 254 nm UV
Sequence of recombinant His-tagged HDAC2 (Q92769 whole entry): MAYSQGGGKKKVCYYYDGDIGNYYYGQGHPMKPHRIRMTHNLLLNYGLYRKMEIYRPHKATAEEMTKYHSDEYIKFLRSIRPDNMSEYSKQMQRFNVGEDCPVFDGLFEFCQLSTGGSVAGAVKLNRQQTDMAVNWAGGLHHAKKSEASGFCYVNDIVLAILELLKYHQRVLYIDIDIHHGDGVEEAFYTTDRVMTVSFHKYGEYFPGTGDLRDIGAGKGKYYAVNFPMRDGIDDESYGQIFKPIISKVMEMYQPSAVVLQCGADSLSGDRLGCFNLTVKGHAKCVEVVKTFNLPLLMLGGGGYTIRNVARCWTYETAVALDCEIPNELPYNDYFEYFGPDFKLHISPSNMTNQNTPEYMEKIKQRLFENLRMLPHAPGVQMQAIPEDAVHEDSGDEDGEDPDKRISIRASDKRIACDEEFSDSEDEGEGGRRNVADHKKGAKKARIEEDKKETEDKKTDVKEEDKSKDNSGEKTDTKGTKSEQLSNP
Procedure: Photoaffinity labeling studies were conducted with the probes using commercially available recombinant His-tagged HDAC2. […] The loading was confirmed by using nickel-HRP, which recognized the His-tag of the recombinant HDAC2 protein.
500 μM of DBCO-PEG4-biotin conjugate (Click Chemistry tools) in photolabeling buffer was added to initiate the [3+2] cycloaddition reaction with HDAC2-probe adduct. The cycloaddition reaction was carried out for 3 h at room temperature. Western blotting was done with 1.5 ug of purified protein with 5× loading buffer containing 10% SDS, 0.05% bromophenol blue, 50% glycerol, and β-mercaptoethanol. […] After electrophoresis, protein was transferred to a polyvinylidiene difluoride membrane (Iblot-Invitrogen). The membrane was incubated for 12 h with 5% albumin fraction V (Sigma-aldrich) in 1× Tris based saline supplemented with 0.1% Tween-20 (TBS-T). The membrane was washed three times with TBST and then incubated with Ni-HRP (1:2000) in TBST for 1 h under room temperature with slight agitation. After three washes in TBS-T, the chemilumiscent signal was detected using the enhanced chemiluminescence (ECL) kit from Pierce (Pierce Biotechnology, Rockford, Ill.). […] After three washes in PBST and water, the chemilumiscent signal was detected using the enhanced chemiluminescence (ECL) kit from Pierce (Pierce Biotechnology, Rockford, Ill.).

[3] = molecular target: T2, purified recombinant human HDAC8 from E. coli (Homo sapiens, UniProt Q9BY41); assay: Fluorogenic HDAC inhibition assay, HDAC8 (Fluor de Lys substrate); assay type: biochemical; conditions: 10 μM inhibitor, preincubation 3 h
T2 construct: made in house; host or cells: E. coli
T2 sequence (Q9BY41 1-377): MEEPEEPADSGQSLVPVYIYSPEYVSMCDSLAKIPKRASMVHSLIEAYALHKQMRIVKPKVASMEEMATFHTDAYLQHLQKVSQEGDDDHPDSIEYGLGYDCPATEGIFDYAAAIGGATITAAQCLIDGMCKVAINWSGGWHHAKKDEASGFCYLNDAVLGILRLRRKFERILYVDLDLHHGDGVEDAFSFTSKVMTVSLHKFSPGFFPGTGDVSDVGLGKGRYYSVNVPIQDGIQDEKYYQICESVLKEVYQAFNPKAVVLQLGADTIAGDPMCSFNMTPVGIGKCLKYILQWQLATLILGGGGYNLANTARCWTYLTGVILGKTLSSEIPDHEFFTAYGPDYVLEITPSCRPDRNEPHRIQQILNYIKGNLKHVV
Procedure: as §1

T1 sequence (Q92769 whole entry): as the sequence (Q92769 whole entry) above

[N-]=[N+]=NCCOc1ccc(C(=O)Nc2cc(-c3ccccc3)ccc2N)cc1N=[N+]=[N-] [probe 1e, N-(4-amino-[1,1′-biphenyl]-3-yl)-3-azido-4-(2-azidoethoxy)benzamide]
IC50 [1]: 830 nM | increase in inhibition of HDAC2 upon preincubation (IC50 ratio) ([1]; preincubation 24 h vs 5 min): 41 fold

[N-]=[N+]=NCCOc1ccc(C(=O)Nc2cc(-c3cccs3)ccc2N)cc1N=[N+]=[N-] [probe 1f, N-(2-amino-5-(thiophen-2-yl)phenyl)-3-azido-4-(2-azidoethoxy)benzamide]
IC50 [1]: 750 nM

[N-]=[N+]=NCCC(=O)Nc1ccc(C(=O)Nc2cc(N=[N+]=[N-])ccc2N)cc1 [probe 1g, N-(2-amino-5-azidophenyl)-4-(3-azidopropanamido)benzamide]
decrease in biotinylation of HDAC2 in the presence of competing ligand [2]: slightly less pronounced

[N-]=[N+]=Nc1cccc(COC(=O)NCc2ccc(C(=O)Nc3cc(-c4ccccc4)ccc3N)cc2)c1 [probe 2a, 3-azidobenzyl 4-((4-amino-[1,1′-biphenyl]-3-yl)carbamoyl)benzylcarbamate]
inhibition of HDAC8 [3]: inactive | inhibition of HDAC8 ([3]; 10 µM): did not inhibit
